These results are taken from US20120142771A1, “BIPHENYLACETAMIDE DERIVATIVE” (Dainippon Sumitomo Pharma Co., Ltd., priority 2008, published 2012).

Type in all cases: in vivo, mice
The subject of test [1] is 6 Hz psychomotor seizure model. The experiment in a line: 6 Hz psychomotor seizure model. The conditions noted are these: mice; for 6 Hz (Positive number/tested number) / ED50: oral; for 6 Hz (Positive number/tested number): dose 100 mg/kg, 30 minutes or 1 hour after administration; for ED50: Mus musculus, 6 Hz psychomotor seizure model, read-out: ED50; for efficacy in 6 Hz psychomotor seizure model: oral administration at a dose of 100 mg/kg. Here is the method: Test 4: Test of 6 Hz Psychomotor Seizure Model
Similar to Tests 1 and 2, Test 4 evaluates the anticonvulsant action of medicaments. However, unlike Tests 1 and 2, the animal model used herein represents clinical phenotypes of seizures resistant to existing antiepileptic drugs. […] After 30 minutes or an hour of administration, their corneas were electrically stimulated (6 Hz, 32 mA, 3 seconds) to induce symptoms of myoclonus in their forelimbs, Straub tail, and immobility. […] To the control mice, 0.5% tragacanth solution, 0.5% methylcellulose solution, or olive oil was administered.

The test system of test [2] is maximum electroshock seizure (MES) model. The experiment in a line: Maximum electroshock seizure (MES) model test. The conditions noted are these: for responders at 50 mg/kg / responders at 100 mg/kg: Mus musculus, po, 1 h, Slc: ddY male mice, 3 per group, electrical stimulation 1 hour after administration, inhibition of hind limb extension, read-out: MES (positive number/tested number) (converted); for responders at 50 mg/kg: 50 mg/kg oral; for responders at 100 mg/kg: 100 mg/kg oral; for anticonvulsant action in maximum electroshock seizure (MES) model test: mice, oral 50 or 100 mg/kg, 1 hour after administration. Put shortly: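 Tonic hind-limb extension was elicited by corneal electroshock (60 Hz, 25 mA, 0.2 s) 1 h after oral dosing. Test compounds were given at 50 or 100 mg/kg to groups of 3 male Slc: ddY mice (20-30 g), vehicle controls receiving 0.5% tragacanth or 0.5% methylcellulose solution.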

The test system of test [3] is subcutaneously pentetrazol-injected model (scPTZ). The experiment in a line: Subcutaneously pentetrazol-injected model (scPTZ) test. The conditions noted are these: pentetrazol 85 mg/kg s.c. after 1 hour; for responders at 50 mg/kg / responders at 100 mg/kg: Mus musculus, po, 1 h, Slc: ddY male mice, 3 per group, observed 30 minutes for clonic convulsion, read-out: scPTZ (positive number/tested number) (converted); for responders at 50 mg/kg: 50 mg/kg oral; for responders at 100 mg/kg: 100 mg/kg oral; for anticonvulsant action in subcutaneously pentetrazol-injected model (scPTZ) test: mice, oral 50 or 100 mg/kg. Put shortly:
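Pentetrazol (85 mg/kg, s.c.) was injected one hour after oral test compound at 50 or 100 mg/kg in groups of three male Slc:ddY mice weighing 20-30 g; vehicle controls got 0.5% tragacanth or 0.5% methylcellulose.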

The structures appear in SMILES notation.

In the case of `NC(=O)Cc1ccccc1-c1cccc(Br)c1` [Example 52, 2-(3′-bromobiphenyl-2-yl)acetamide], the “6 Hz (Positive number/tested number)” value in test [1] is recorded as 1/5/100. Moreover, in test [2], the responders at 50 mg/kg is 66.7% and the responders at 100 mg/kg was 100%. In addition, in test [3], the responders at 50 mg/kg was 33.3% and the responders at 100 mg/kg was 66.7%.
`NC(=O)C(O)c1ccccc1-c1ccccc1` (stereo not shown) [Example 59, 2-(Biphenyl-2-yl)-2-hydroxyacetamide]: in test [1], the ED50 is 91.5 mg/kg and the “6 Hz (Positive number/tested number)” value is recorded as 7/10/100. In test [2], the responders at 50 mg/kg is 100% and the responders at 100 mg/kg was 100%. Also, in test [3], the responders at 50 mg/kg was 0% and the responders at 100 mg/kg was 66.7%.
With `NC(=O)C(O)c1ccccc1-c1ccccc1F` (stereo not shown) [Example 60, 2-(2′-Fluorobiphenyl-2-yl)-2-hydroxyacetamide], in test [1], the “6 Hz (Positive number/tested number)” value is reported as 1/5/100. For the same compound, in test [2], the responders at 50 mg/kg is 100% and the responders at 100 mg/kg is 100%. Further, in test [3], the responders at 50 mg/kg is 33.3% and the responders at 100 mg/kg is 66.7%.
`NC(=O)Cc1ccccc1-c1cc(Cl)cc(Cl)c1Cl` [Example 64, 2-(2′,3′,5′-Trichlorobiphenyl-2-yl)acetamide]: in test [1], the “6 Hz (Positive number/tested number)” value is 3/5/100. Also, in test [2], the responders at 50 mg/kg was 100% and the responders at 100 mg/kg was 100%. In addition, in test [3], the responders at 50 mg/kg is 0% and the responders at 100 mg/kg was 100%.
Turning to `NC(=O)Cc1ccccc1-c1ccc(Cl)cc1Cl` [Example 78, 2-(2′,4′-dichlorobiphenyl-2-yl)acetamide], in test [1], the “6 Hz (Positive number/tested number)” value is given as 3/5/100. Besides, in test [2], the responders at 50 mg/kg was 100% and the responders at 100 mg/kg was 100%. For the same compound, in test [3], the responders at 50 mg/kg was 0% and the responders at 100 mg/kg was 66.7%.
In the case of `NC(=O)Cc1ccccc1-c1cc(F)cc(Cl)c1` [Example 80, 2-(3′-chloro-5′-fluorobiphenyl-2-yl)acetamide], in test [1], the “6 Hz (Positive number/tested number)” value is 4/5/100. For the same compound, in test [2], the responders at 50 mg/kg is 100%, the responders at 100 mg/kg was 100% and the “anticonvulsant action in maximum electroshock seizure (MES) model test” value (“anticonvulsant action … (MES) model test” for short) was “anticonvulsant action was observed”. For the same compound, in test [3], the responders at 50 mg/kg is 66.7%, the responders at 100 mg/kg is 100% and the “anticonvulsant action in subcutaneously pentetrazol-injected model (scPTZ) test” value (“anticonvulsant action … (scPTZ) test” for short) is reported as “anticonvulsant action was observed”.
For `NC(=O)Cc1ccccc1-c1cccc(F)c1Cl` [Example 86, 2-(2′-chloro-3′-fluorobiphenyl-2-yl)acetamide], in test [1], the “6 Hz (Positive number/tested number)” value is recorded as 2/5/100. Further, the responders at 50 mg/kg is 100% in test [2] and 33.3% in test [3]. The responders at 100 mg/kg in test [2] and in test [3] was 66.7% each time.
As for `NC(=O)Cc1ccccc1-c1cc(F)ccc1Cl` [Example 88, 2-(2′-chloro-5′-fluorobiphenyl-2-yl)acetamide], the “6 Hz (Positive number/tested number)” value in test [1] is 3/5/100. For the same compound, in test [2], the responders at 50 mg/kg is 66.7%, the responders at 100 mg/kg was 100% and the “anticonvulsant action … (MES) model test” value is on record as “anticonvulsant action was observed”. In test [3], the responders at 50 mg/kg was 66.7%, the responders at 100 mg/kg was 100% and the “anticonvulsant action … (scPTZ) test” value is listed as “anticonvulsant action was observed”.
Consider `NC(=O)Cc1ccccc1-c1cc(Cl)ccc1C(F)(F)F` [Example 91, 2-[5′-chloro-2′-(trifluoromethyl)biphenyl-2-yl]acetamide], for which, in test [1], the “efficacy in 6 Hz psychomotor seizure model” value (shortened to “efficacy”) is given as “potent efficacy” and the “6 Hz (Positive number/tested number)” value is 5/5/100. For the same compound, in test [2], the responders at 50 mg/kg is 100%, the responders at 100 mg/kg is 100% and the “anticonvulsant action … (MES) model test” value is listed as “anticonvulsant action was observed”. In test [3], the responders at 50 mg/kg is 66.7%, the responders at 100 mg/kg is 66.7% and the “anticonvulsant action … (scPTZ) test” value is given as “anticonvulsant action was observed”.
Regarding `NC(=O)Cc1ccccc1-c1cc(OC(F)(F)F)ccc1F` [Example 93, 2-[2′-fluoro-5′-(trifluoromethoxy)biphenyl-2-yl]acetamide], in test [1], the “6 Hz (Positive number/tested number)” value was 2/5/100. In addition, in test [2], the responders at 50 mg/kg is 100% and the responders at 100 mg/kg is 100%. For the same compound, in test [3], the responders at 50 mg/kg was 33.3% and the responders at 100 mg/kg was 100%.
Regarding `NC(=O)C(O)c1ccccc1-c1cccc(F)c1` (stereo not shown) [Example 178, 2-(3′-fluorobiphenyl-2-yl)-2-hydroxyacetamide], in test [1], the 50% effective dose (ED50) is 117 mg/kg and the “6 Hz (Positive number/tested number)” value is given as 5/10/100. Further, in test [2], the responders at 50 mg/kg is 66.7%, the responders at 100 mg/kg is 100% and the “anticonvulsant action … (MES) model test” value was “anticonvulsant action was observed”. In test [3], the responders at 50 mg/kg is 100%, the responders at 100 mg/kg was 100% and the “anticonvulsant action … (scPTZ) test” value is given as “anticonvulsant action was observed”.
Take `NC(=O)C(O)c1ccccc1-c1cc(Cl)cc(Cl)c1` (stereo not shown) [Example 183, 2-(3′,5′-dichlorobiphenyl-2-yl)-2-hydroxyacetamide]: the “6 Hz (Positive number/tested number)” value in test [1] is given as 4/5/100. In addition, in test [2], the responders at 50 mg/kg was 100%, the responders at 100 mg/kg was 100% and the “anticonvulsant action … (MES) model test” value is reported as “anticonvulsant action was observed”. Besides, in test [3], the responders at 50 mg/kg was 66.7%, the responders at 100 mg/kg is 66.7% and the “anticonvulsant action … (scPTZ) test” value is “anticonvulsant action was observed”.
As to `NC(=O)C(O)c1ccccc1-c1cc(F)ccc1Cl` (stereo not shown) [Example 185, 2-(2′-chloro-5′-fluorobiphenyl-2-yl)-2-hydroxyacetamide], in test [1], the “efficacy” value is given as “potent efficacy” and the “6 Hz (Positive number/tested number)” value was 5/5/100. Besides, in test [2], the responders at 50 mg/kg was 66.7%, the responders at 100 mg/kg is 100% and the “anticonvulsant action … (MES) model test” value is reported as “anticonvulsant action was observed”. In test [3], the responders at 50 mg/kg is 66.7%, the responders at 100 mg/kg is 100% and the “anticonvulsant action … (scPTZ) test” value is recorded as “anticonvulsant action was observed”.
Turning to `NC(=O)C(O)c1cc(F)ccc1-c1cc(Cl)cc(Cl)c1` (stereo not shown) [Example 189, 2-(3′,5′-dichloro-4-fluorobiphenyl-2-yl)-2-hydroxyacetamide], the “6 Hz (Positive number/tested number)” value in test [1] is on record as 3/5/100. Further, in test [2], the responders at 50 mg/kg is 100% and the responders at 100 mg/kg is 66.7%. Further, in test [3], the responders at 50 mg/kg is 33.3% and the responders at 100 mg/kg was 66.7%.
For `NC(=O)C(O)c1ccccc1-c1ccccc1Cl` (stereo not shown) [Example 190, 2-(2′-chlorobiphenyl-2-yl)-2-hydroxyacetamide], in test [1], the “efficacy” value was “potent efficacy” and the “6 Hz (Positive number/tested number)” value is recorded as 5/5/100. For the same compound, in test [2], the responders at 50 mg/kg was 66.7%, the responders at 100 mg/kg was 100% and the “anticonvulsant action … (MES) model test” value is reported as “anticonvulsant action was observed”. Moreover, in test [3], the responders at 50 mg/kg was 66.7%, the responders at 100 mg/kg was 66.7% and the “anticonvulsant action … (scPTZ) test” value was “anticonvulsant action was observed”.

What is called ED50 is the dose at which the effect has come halfway, by size or by number of responders.
